Test results as given in paper PMC8042770, “Odorant Receptors for Detecting Flowering Plant Cues Are Functionally Conserved across Moths and Butterflies” (Molecular Biology and Evolution, 2020).

Experiments:
[1] = target: HarmOR59 (Helicoverpa armigera, UniProt A0A7T3KAU6); experiment: Xenopus oocyte two-electrode voltage clamp, HarmOR59 + Orco; type: cell-based
Method: In order to expand our analysis on the response properties of HarmORs, we conducted dose–response analyses for the 28 functional HarmORs. […] Six HarmORs (OR3, 22, 48, 50, 56, and 66) could not be activated by any ligand at 10^−5 M. For the other 22 HarmORs, dose–response curves were generated and EC50 values of their major ligands were calculated (fig. 2A and supplementary table S2, Supplementary Material online). The HarmOR repertoire was highly efficient in terpene detection, since the lowest EC50 values were obtained for such compounds. Many of these terpenes have been proposed to be defensive chemicals of plants. […] DMNT is also one of the oviposition deterring compounds found in larval frass of some Lepidoptera species such as S. littoralis ([Anderson et al. 1993]).
Functional characterization of individual ORs was performed by heterologous expression in Xenopus oocytes combined with a two-electrode voltage-clamp system ([Wang et al. 2010]). Briefly, the full-length gene of each OR and Orco were subcloned into the eukaryotic expression vector pT7TS. cRNAs were generated from linearized expression vectors using the mMESSAGE mMACHINE T7 kit (Ambion, Austin, TX). Then, the cRNA mixture of ORx and Orco (27.6 ng each) was injected (Nanoliter 2010, WPI Inc., Sarasota, FL) into oocytes (stage V–VII). The respective Orcos of different species were used for functional studies of OR42 orthologs except for the four butterfly species (V. tameamea, P. xuthus, D. plexippus, and P. rapae), in which we used the Orco from P. xuthus. After incubation in nutrient solution at 18 °C for 3–5 days, the response profile of each oocyte to multiple plant odorants was recorded via a two-electrode voltage clamp (OC-725C oocyte clamp, Warner Instruments, Hamden, CT) at a holding potential of −80 mV. Data were acquired by using a Digidata 1440 A and were analyzed by pCLAMP 10.2 software (Axon Instruments Inc., Union City, CA).
Stock solutions of each odorant were prepared at 1 M using DMSO as a solvent, and each odorant was diluted in 1× Ringer’s solution to the indicated concentrations for electrophysiological recording. For functional screening of each HarmOR, a panel of 67 odorants belonging to three types of chemical classes: terpenes, aromatics, and aliphatics (short-chain fatty acid) were used (supplementary table S1, Supplementary Material online). For functional studies of OR42 orthologs from different species, six odorants including PAA, benzaldehyde, (E)-2-hexen-1-al, cinnamaldehyde, 2-phenylethanol, and heptanal were used.

[2] = system: HarmOR42 orthologs from 11 lepidopteran species; experiment: Xenopus oocyte voltage clamp of HarmOR42 orthologs, six-odorant screen; type: cell-based; conditions: six compounds at 10^−4 M; 11 species
Description: We gathered additional experimental evidence to support this conservation of a PAA-sensing function by performing in vitro functional characterization of HarmOR42 orthologs from 11 lepidopteran species belonging to eight families (fig. 5B). […] It should be noted that the species studied here included three Noctuidae species (H. armigera, H. assulta, and Mythimna separata), four moths from Bombycidae (Bombyx mori), Crambidae (Chilo suppressalis), Sphingidae (Manduca sexta), and Tortricidae (Grapholitha molesta) ([Mitter et al. 2017]; [Kawahara et al. 2019]), and four diurnal butterfly species from diverse families (Vanessa tameamea, Papilio xuthus, Danaus plexippus, and Pieris rapae) (fig. 5B). […]
Functional characterization of individual ORs was performed by heterologous expression in Xenopus oocytes combined with a two-electrode voltage-clamp system ([Wang et al. 2010]). […] After incubation in nutrient solution at 18 °C for 3–5 days, the response profile of each oocyte to multiple plant odorants was recorded via a two-electrode voltage clamp (OC-725C oocyte clamp, Warner Instruments, Hamden, CT) at a holding potential of −80 mV. Data were acquired by using a Digidata 1440 A and were analyzed by pCLAMP 10.2 software (Axon Instruments Inc., Union City, CA). […]

Chain of HarmOR59 (A0A7T3KAU6 entry or part of it): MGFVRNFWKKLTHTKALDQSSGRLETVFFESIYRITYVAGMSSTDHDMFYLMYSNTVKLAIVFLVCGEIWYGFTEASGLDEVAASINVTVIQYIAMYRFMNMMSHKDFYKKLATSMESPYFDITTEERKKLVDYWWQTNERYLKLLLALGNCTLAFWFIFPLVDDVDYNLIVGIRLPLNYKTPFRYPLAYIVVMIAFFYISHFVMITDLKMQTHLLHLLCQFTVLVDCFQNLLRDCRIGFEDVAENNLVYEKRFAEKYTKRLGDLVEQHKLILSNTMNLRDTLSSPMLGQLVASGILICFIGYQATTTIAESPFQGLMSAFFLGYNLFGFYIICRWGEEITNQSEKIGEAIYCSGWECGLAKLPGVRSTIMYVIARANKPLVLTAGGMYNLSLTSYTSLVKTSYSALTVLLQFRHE

O=CCc1ccccc1 [Phenylacetaldehyde]
EC50 [1]: 6.97 µM | ligand tuning of HarmOR42 orthologs [2]: robustly tuned to PAA as its best ligand
